From patent EP0150787A2, “Compound having antibronchopneumopathic activity, process for its preparation and pharmaceutical compositions containing it” (PULITZER ITALIANA S.p.A., priority 1984, dated 1985)
Where two headings read alike, the source gives them in different places.

How the values were obtained:
[1] = Acute toxicity, oral route, method of Litchfield and Wilcoxon; conditions: in vivo, os
Description: The acute toxicity of PU 163 has been determined in the mouse and in the rat by the oral route accor ding to the method of Litchfield and Wilcoxon (J. Pharm. Exp. Therap. 1949, 96, 99).

trachea ciliate cells = assay: Ciliary motility in the dog's trachea in vitro (transit speed of a charcoal bolus); assay type: cell-based; conditions: for SPEED OF CHARCOAL PARTICLES 5 Minutes mm/min. x̄ ± ES / SPEED OF CHARCOAL PARTICLES 10 Minutes mm/min x̄ ± ES / SPEED OF CHARCOAL PARTICLES 20 Minutes mm/min. x̄ ± ES / activation at 100 µg/mL: 10^-4 g/ml; for activation at 100 µg/mL: Canis lupus familiaris; for SPEED OF CHARCOAL PARTICLES Basal mm/min. x̄ ± ES: group later treated with 10^-4 g/ml
Description: The mucolytic activity of many products is due in that they induce an increase of motility in the trachea ciliate cells.
The method hereinafter described allows to assess "in vitro" if a compound increases, or not, the motility of said cells. The method is based on the measurement of the transit speed of a charcoal bolus in a section of trachea.
The method used is that described by J.E. Lightowler and N.H. Lightowler (Arch. Int. Pharmacodyn. 189, 53-58, 1971) and uses an apparatus similar to that described by T. Dalhamn (Acta Physiol. Scand. Suppl. 123, 1956).

rat = assay: Bronchosecretogogue activity (Mawatari test, bronchial elimination of sodium fluorescein); assay type: in vivo; conditions: 50 mg/kg i.p. (table head; text: oral route), percent increase of bronchial elimination
Description: The bronchosecretogogue activity of PU 163 and, as a comparison, of Ambroxol has been determined in the rat using the method described by Mawatari ("Experimental Studies on the Expectorant Action of Several Drugs", Kagoshima Daigaku Igaku Zasshi, 27, 561, 1976). […] After the animals'sacrifice, the evaluation of the amound of sodium fluorescein present at the bronchial level has been carried out. The results obtained, reported in the Table 3, are expressed as percent increase of the bronchial elimination of sodium fluorescein of the groups treated with Ambroxol and PU 163 in comparison with a control group.

alveolar surfactant = assay: Activity on the alveolar surfactant (static volume-pulmonary pressure curves); assay type: in vivo; conditions: rat, 50 mg/kg p.o.
Method: This test allow to verify if a compound can modi fy the surfaces of lung alveoli, as there are pathological conditions in which a superficial firm is produced in the alveoli which, as time goes on, can produce foam in the bronchi, making the respiration difficult. In order to assess this kind of activity, the method described by Curty P.C. (Arzneim. Forsch. Drug. Res., 24, 847, 1974) is used. According to said method the volume and the pressure after insufflation in the rat's lung, are measured. […] After sacrifice, and after the trachea incan nulation, the respiratory apparatus has been extracted from the thoracic cavity and the static cur ves of volume-pulmonary pressure.

[2] = test system: chronic bronchitis induced by inhalation of SO in the rat; assay: Chronic bronchitis induced by SO2 inhalation; assay type: in vivo; conditions: 50 mg/kg by gastric tube
Description: The action of PU 163 in comparison with Ambroxol on the chronic bronchitis induced by inhalation of SO in the rat has been evaluated according to the method described by Quevauvillier e coll. (Therapie, XXII; 185-193; 1967). […] The efficacy of […] been evaluated in function of the regression degree of the pulmonary lesions induced by […] inhalation.

elastase = assay: Elastase inhibition (method of R.M. Senior); assay type: biochemical
Description: The inhibiting activity of PU 163 and of Ambroxol on elastase has been measured according to the method described by R.M. Senior (Plenum Press. New York; 249-254; 1977).

[3] = test system: pulmonary emphysema induced in the guinea pig; assay: Pulmonary emphysema induced by intratracheal porcine pancreatic elastase; assay type: in vivo; conditions: 50 mg/kg i.p. 1 hour after the elastase injection
Method: The ability of PU 163 of antagonizing the pulmonary emphysema induced in the guinea pig by intratracheal injection of 0.1 mg of porcine pancrea tic elastase has been evaluated in comparison with Ambroxol, according to the method described by Stone P.J. et al. (Am. Rev. Resp. Dis. 124/1, 56-59; 1981). Both compounds have been administered by the i.p. route at the equiponderant dose of 50 mg/kg 1 hour after the elastase injection.

[4] = Pharmacokinetics and organ distribution by HPLC; assay type: in vivo; conditions: rat, oral route, equimolar dose corresponding to 50 mg/kg of Ambroxol base
Method: The pharmacokynetics behaviour and the distribu tion in the organs of PU 163, in comparison to Ambroxol, has been determined in the rat after ad ministration by the oral route of equimolar doses, corresponding to 50 mg/kg of Ambroxol base.

[5] = 5 min, 5 minutes, read-out: SPEED OF CHARCOAL PARTICLES 5 Minutes % Δ vs.Bas. x̄ ± ES
[6] = 10 min, 10 minutes, * p <0.05, read-out: SPEED OF CHARCOAL PARTICLES 10 Minutes % Δ vs.Bas. x̄ ± ES
[7] = 20 min, 20 minutes, ** p <0.01, read-out: SPEED OF CHARCOAL PARTICLES 20 Minutes % Δ vs.Bas. x̄ ± ES

Row | Structure (SMILES) | LD50 ([1]; mouse) | LD50 ([1]; rat) | SPEED OF CHARCOAL PARTICLES 5 Minutes mm/min. x̄ ± ES (trachea ciliate cells; 5 minutes) | SPEED OF CHARCOAL PARTICLES 10 Minutes mm/min x̄ ± ES (trachea ciliate cells; 10 minutes) | SPEED OF CHARCOAL PARTICLES 20 Minutes mm/min. x̄ ± ES (trachea ciliate cells; 20 minutes) | activation at 100 µg/mL (trachea ciliate cells; [5]) | activation at 100 µg/mL (trachea ciliate cells; [6]) | activation at 100 µg/mL (trachea ciliate cells; [7]) | SPEED OF CHARCOAL PARTICLES Basal mm/min. x̄ ± ES (trachea ciliate cells) | SODIUM FLUORESCEIN % vs. control (rat) | Internal pulmonary pressure (cm. H2O) (alveolar surfactant; de-insufflation, 0.5 cm^3) | Internal pulmonary pressure (cm. H2O) (alveolar surfactant; de-insufflation, 1 cm^3) | Internal pulmonary pressure (cm. H2O) (alveolar surfactant; de-insufflation, 1.5 cm^3) | Internal pulmonary pressure (cm. H2O) (alveolar surfactant; de-insufflation, 2 cm^3) | Internal pulmonary pressure (cm. H2O) (alveolar surfactant; de-insufflation, 2.5 cm^3) | Internal pulmonary pressure (cm. H2O) (alveolar surfactant; de-insufflation, 3 cm^3) | Internal pulmonary pressure (cm. H2O) (alveolar surfactant; insufflation, 0.5 cm^3) | Internal pulmonary pressure (cm. H2O) (alveolar surfactant; insufflation, 1 cm^3) | Internal pulmonary pressure (cm. H2O) (alveolar surfactant; insufflation, 1.5 cm^3) | Internal pulmonary pressure (cm. H2O) (alveolar surfactant; insufflation, 2 cm^3) | further results
1 | Nc1c(Br)cc(Br)cc1CN[C@H]1CC[C@H](O)CC1 [Ambroxol, 4-/ /(2-amino-3,5-dibromophenyl)-methyl/amino/cyclohexanol, reference compound] | > 2500 mg/kg | > 5000 mg/kg | 8.2 ±2.12 mm/min. | 9.5 ±1.62 mm/min | 10.2 ±2.31 mm/min. | 28.1 ± 3.54% | 57.6% | 59.4% | 6.4 ±1.30 mm/min. | 32.1% | 0.25 cm. H2O | 1.1 cm. H2O | 2.3 cm. H2O | 3.3 cm. H2O | 4.6 cm. H2O | 6.1 cm. H2O | 2.45 cm. H2O | 4.1 cm. H2O | 5.6 cm. H2O | 6.9 cm. H2O | Internal pulmonary pressure (cm. H2O) (alveolar surfactant; insufflation, 2.5 cm^3): 7.9 cm. H2O; Internal pulmonary pressure (cm. H2O) (alveolar surfactant; insufflation, 3 cm^3): 8.7 cm. H2O; Internal pulmonary pressure (cm. H2O) (alveolar surfactant; insufflation, 3.5 cm^3): 9.3 cm. H2O; percent regression (lesions degrees) [2]: 38%; inhibiting activity on elastase (elastase): practically inactive
2 | O=C(Nc1c(Br)cc(Br)cc1CN[C@H]1CC[C@H](O)CC1)c1cccs1 [PU 163, 4-/ /(2-(2-thenoyl)-amino-3,5-dibromophenyl)-methyl/amino/cy-clohexanol] | > 2500 mg/kg | > 5000 mg/kg | 8.7 ±2.82 mm/min. | 10.2 ±2.02 mm/min | 11.5 ±2.38 mm/min. | 24.3 ± 7.8% | 45.7% | 64.3% | 7.00 ±1.40 mm/min. | 39.3% | 0.35 cm. H2O | 1.4 cm. H2O | 2.5 cm. H2O | 3.9 cm. H2O | 5.2 cm. H2O | 6.75 cm. H2O | 2.2 cm. H2O | 3.8 cm. H2O | 5.35 cm. H2O | 6.5 cm. H2O | Internal pulmonary pressure (cm. H2O) (alveolar surfactant; insufflation, 2.5 cm^3): 7.6 cm. H2O; Internal pulmonary pressure (cm. H2O) (alveolar surfactant; insufflation, 3 cm^3): 8.45 cm. H2O; Internal pulmonary pressure (cm. H2O) (alveolar surfactant; insufflation, 3.5 cm^3): 9 cm. H2O; activity of reducing emphysema [3]: high activity of reducing emphysema; percent regression (lesions degrees) [2]: 62%; concentrations in the organs (pulmonary level) [4]: larger amounts of Ambroxol at the pulmonary level; plasma concentrations as Ambroxol ([4]; compared with Ambroxol treated group): detected at prolonged times
